The term IC50 denotes the midpoint of a concentration-inhibition curve. A word on the inhibition: it is the drop in the measured response relative to a control, in per cent.

Molecules are shown by their SMILES.

Here are results for two compounds from PMC11941218, “Juglone-Bearing Thiopyrano[2,3-d]thiazoles Induce Apoptosis in Colorectal Adenocarcinoma Cells” (Cells, 2025).

What all share (assay type): cell-based, human
The subject of assay [1] is DLD-1 colorectal adenocarcinoma cells. Put plainly: MTT assay. As to conditions: for IC50: Homo sapiens. As for the experimental part: DLD-1, HaCaT, and Balb/c 3T3 cells were maintained in DMEM, while HT-29 cells were grown in McCoy’s 5A medium with 10% FBS and 1% penicillin/streptomycin. All cell lines were incubated at 37 °C in a humidified atmosphere with 5% CO2. After detaching the cells with trypsin, they were quantified using a Scepter 3.0 automated cell counter (Millipore, Burlington, MA, USA).
The metabolic activity of cells exposed to the tested derivatives, doxorubicin, and DMSO, was assessed using an MTT assay according to the manufacturer’s protocol (Sigma-Aldrich, St. Louis, MO, USA). Adherent cells were seeded into 96-well plates (5000–10,000 cells in 100 µL of growth medium per well) and allowed to adhere overnight before treatment. For lymphocytes, activation with phytohemagglutinin-L (1 µg/mL) was performed for 24 h, after which they were seeded in 96-well plates at a density of 100,000 cells/well in RPMI-1640 medium supplemented with 20% FBS. The test substances, including Les-6547, Les-6557, and doxorubicin, were added to 100 µL of culture medium to achieve final concentrations of 0 µM, 0.1 µM, 1 µM, 2.5 µM, 10 µM, and 100 µM for all compounds, and the cells were further incubated for 24, 48, or 72 h. DMSO-treated cells served as the control. Then, 20 µL of MTT solution (5 mg/mL) was added and incubated for 2–4 h to allow formazan crystal formation. The formazan crystals were then solubilized by adding DMSO. The absorbance of formazan was measured at 570 nm using a ThermoScientific Evolution 201 UV-VIS spectrophotometer (ThermoFisher Scientific, Waltham, MA, USA). The control condition with 0.5% DMSO was considered 100% viability. The IC50 values for the compounds were determined using GraphPad Prism 8 and 9 software (GraphPad Software, Boston, MA, USA).
(In general: Tetrazolium assays rely on reduction of a dye to a coloured formazan, in cell work by metabolically active cells.)

Assay [2] relates to HT-29 colorectal adenocarcinoma cells. The experiment in a line: Colony forming (clonogenic) assay. As to conditions: for inhibition of colony formation: HT-29, 2.5 µM; for inhibition at 1 µM / IC50: Homo sapiens; for inhibition at 1 µM: HT-29, 1 µM, read-out: inhibition of colony formation; for IC50: HT-29, 72 h treatment, 14 days of incubation, n = 3. As for the experimental part: (§1) For colony forming assay, HT-29 and DLD-1 cells were seeded in 12-well plates at a density of 500 cells in 2 mL of growth medium per well. After overnight incubation, the cells were exposed to the compounds Les-6547, Les-6557, and doxorubicin at concentrations ranging from 0.1 to 100 µM for 72 h. Following treatment, the medium was replaced with fresh medium without the compounds. After 14 days of culture, cells were rinsed with PBS and fixed with cold methanol for 10 min. Subsequently, the cells were stained with a 0.1% crystal violet solution for 10 min. After washing, the plates were allowed to dry at room temperature. Numbers of colonies were quantified using ImageJ software (version 1.5.4; National Institutes of Health, Bethesda, MD, USA). The effect of the compounds on the colony-forming capacity was calculated as a percentage of colonies relative to the untreated control group.

The test system of assay [3] is DLD-1 colorectal adenocarcinoma cells. Put plainly: Colony forming (clonogenic) assay. The settings on record: for inhibition of colony formation: DLD-1, 2.5 µM; for inhibition at 1 µM / IC50: Homo sapiens; for inhibition at 1 µM: DLD-1, 1 µM, read-out: inhibition of colony formation; for IC50: DLD-1, 72 h treatment, 14 days of incubation, M ± SD, n = 3. As to the method: as §1

Assay [4] deals with HT-29 colorectal adenocarcinoma cells. Put plainly: Intracellular total ROS activity assay (flow cytometry). As to conditions: HT-29, 24 h; control 3.8%. As for the experimental part:
Total reactive oxygen species (ROS) activity was assessed using an Intracellular Total ROS Activity Assay Kit. Following 24 h incubation with studied derivatives, HT-29 cells were prepared for analysis with the flow cytometer according to the protocol detailed in the literature. The cells were washed twice with cold PBS, followed by the addition of the assay buffer provided in the kit. The cells, at a concentration of 1 × 10⁶ cells/mL, were then exposed to 10 µL of Total ROS Green reagent and incubated for one hour at 37 °C in a CO2 incubator. After the incubation period, the cells were rinsed with the assay buffer. Finally, the cells were resuspended in 500 µL of assay buffer and analyzed using a BD FACSCanto II flow cytometer in conjunction with FACSDiva 6.1.3 software (both BD Biosciences Systems, San Jose, CA, USA). The BD Cytometer Setup and Tracking Beads (BD Biosciences, San Diego, CA, USA) were used for calibration.
(In general: Flow cytometry measures light scatter and fluorescence of single cells or particles in a stream.)

Assay [5] shares this test system. The experiment in a line: Cell cycle analysis (PI, flow cytometry). As to conditions: HT-29, 24 h; Les-6547 5 μM, Les-6557 10 μM. As to the method:
Cell cycle analysis of HT-29 cells treated with Les-6547 (5 µM) and Les-6557 (10 µM) for 24 h was conducted utilizing a FACSCanto II flow cytometer. Following the incubation period, the cells were detached using trypsin, collected, and fixed in cold ethanol (70%) before being stored at −20 °C for up to three days. Cells were then processed for flow cytometry analysis as previously described. Fixed cells were washed with cold PBS and centrifuged at 2000 rpm for 10 min, and the supernatant was discarded. The cell pellet was resuspended in PBS with 50 μg/mL DNase-free RNase A Solution and stained with 100 μg/mL PI for 30 min at 37 °C in the dark. After washing, the cells were resuspended in PBS. Cell cycle distribution was analyzed using a BD FACSCanto II flow cytometer (10,000 events) and FACSDiva 6.1.3 software (both BD Biosciences Systems, San Jose, CA, USA), followed by analysis with FCS Express 7 software (De Novo Software, Pasadena, CA, USA). The system was calibrated using a BD Cytometer Setup and Tracking Beads (BD Biosciences, San Diego, CA, USA).

For assay [6] the test system is unchanged. Put plainly: Mitochondrial membrane potential assay (JC-1, flow cytometry). As to conditions: HT-29, JC-1, 24 h; Les-6547 5 μM, Les-6557 10 μM. As to the method:
The disruption of mitochondrial membrane potential (MMP) was assessed using the JC-1 MitoScreen kit and a BD FACSCanto II flow cytometer, following the instructions provided and previously described protocols.
HT-29 cells were exposed to Les-6547 (5 µM) and Les-6557 (10 µM) for 24 h. After the treatment, the cells were washed and resuspended in 0.5 mL of buffer containing 10 μg/mL JC-1, followed by incubation for 15 min at room temperature, shielded from light.
Then, the cells were washed twice with buffer, resuspended in 300 μL of PBS, and analyzed for mitochondrial membrane potential disruption.

Setting [7] is: DLD-1, MTT, 24, 48 and 72 h, read-out: IC50 (range over incubation times).
The mark [8] stands for this setting: DLD-1, MTT, 24 h, M ± SD, n = 3, read-out: IC50.
The mark [9] stands for this setting: DLD-1, MTT, 48 h, M ± SD, n = 3, read-out: IC50.
[10] abbreviates: DLD-1, MTT, 72 h, M ± SD, n = 3, read-out: IC50.

As to `O=C1C2=C(C(=O)c3c(O)cccc31)C(c1cc(Cl)ccc1O)c1sc(=O)[nH]c1S2` (stereo not drawn) [Les-6547], in assay [1] (setting [7]), the IC50 was 5.14 to 6.62 µM. In addition, the 50% inhibitory concentration (IC50) in assay [1] (setting [8]) turned out to be 5.14 ± 0.81 µM. For the same compound, in assay [1] (setting [9]), the half-maximal inhibitory concentration (IC50) worked out at 5.17 ± 0.58 µM. Further, in assay [1] (setting [10]), the IC50 was determined as 6.62 ± 0.07 µM. Moreover, in assay [2], the “inhibition of colony formation” value was “completely inhibited colony formation”, the inhibition at 1 µM stood at 100% and the IC50 was roughly 0.5 µM. In assay [3], the “inhibition of colony formation” value was “completely inhibited colony formation”, the inhibition at 1 µM was 99% and the concentration for half-maximal inhibition (IC50) is 0.4 ± 0.06 µM. Moreover, the “increase of the number of ROS-positive cells compared with the control cells” value in assay [4] is given as “approximately 10 fold”. Also, in assay [5], the “cells in G1 phase” value is on record as 25.4%, the “cells in G2/M phase” value was 39.9% and the “cells in S phase” value is on record as 34.7%. Further, in assay [6], the “Cells with decreased ΔΨm” value is recorded as 30.8% and the “Cells with normal ΔΨm” value amounted to 70.4%.
As to `O=C1C2=C(C(=O)c3c(O)cccc31)C(c1ccc(Cl)cc1)c1sc(=O)[nH]c1S2` (stereo not drawn) [Les-6557], the “inhibition of viability, times more effective than Les-6547” value in assay [1] (DLD-1, MTT, 48 h, versus Les-6547) is listed as 2.5 times. Further, the IC50 in assay [1] (setting [7]) was 1.94 to 16.9 µM. The IC50 in assay [1] (setting [8]) is 16.9 ± 3.32 µM. For the same compound, in assay [1] (setting [9]), the IC50 is 1.94 ± 0.05 µM. In addition, the IC50 in assay [1] (setting [10]) worked out at 5.19 ± 1.14 µM. Further, in assay [2], the “inhibition of colony formation” value is reported as “completely inhibited colony formation”, the inhibition at 1 µM is 100% and the IC50 was roughly 0.5 µM. Moreover, in assay [3], the “inhibition of colony formation” value is given as “completely inhibited colony formation”, the inhibition at 1 µM came to 99% and the IC50 was determined as 0.33 ± 0.05 µM. In addition, in assay [4], the “increase of the number of ROS-positive cells compared with the control cells” value is “approximately 10 fold”. In addition, in assay [5], the “cells in G1 phase” value is reported as 19.2%, the “cells in G2/M phase” value came to 28.8% and the “cells in S phase” value is listed as 51.3%. In addition, in assay [6], the “Cells with decreased ΔΨm” value turned out to be 32.9% and the “Cells with normal ΔΨm” value was determined as 68.5%.
